Experiments:
[1] = target: Tyrosine-protein kinase JAK1 (Homo sapiens, UniProt P23458); assay: Inhibition of GST-tagged JAK1 (unknown origin) after 3 hrs by Caliper assay
JAK2 = JAK2 (Homo sapiens, UniProt O60674); assay: Inhibition of human JAK2 (A829 to G1132 residues) expressed in mammalian expression system assessed as residual activity at 50 nM by KINOMEscan assay relative to control; conditions: read-out: Activity
[2] = target: Serine/threonine-protein kinase PknB (Mycobacterium tuberculosis) (UniProt P9WI81); assay: Inhibition of wild-type Mycobacterium tuberculosis partial length PKNB (M1 to G279 residues) expressed in mammalian expression system assessed as residual activity at 50 nM by Kinomescan method relative to control
[3] = target: Protein kinase C theta type (Homo sapiens) (UniProt Q04759); assay: Inhibition of wild-type human partial length PKCT (L350 to S706 residues) expressed in bacterial expression system assessed as residual activity at 50 nM by Kinomescan method relative to control
[4] = target: Mitogen-activated protein kinase kinase kinase 7 (Homo sapiens) (UniProt O43318); assay: Inhibition of wild-type human partial length TAK1 (M1 to Q303 residues) expressed in mammalian expression system assessed as residual activity at 50 nM by Kinomescan method relative to control
[5] = target: Serine/threonine-protein kinase RIO2 (Homo sapiens) (UniProt Q9BVS4); assay: Inhibition of wild-type human partial length RIOK2 (M1 to D313 residues) expressed in mammalian expression system assessed as residual activity at 50 nM by Kinomescan method relative to control
[6] = target: Mast/stem cell growth factor receptor Kit (Homo sapiens) (UniProt P10721); assay: Inhibition of wild-type human partial length KIT (I571 to D952 residues) expressed in bacterial expression system assessed as residual activity at 50 nM by Kinomescan method relative to control
[7] = target: Cyclin-dependent kinase 18 (Homo sapiens) (UniProt Q07002); assay: Inhibition of wild-type human full length PCTAIRE3 (M3 to F474 residues) expressed in bacterial expression system assessed as residual activity at 50 nM by Kinomescan method relative to control
[8] = target: Protein kinase C epsilon type (Homo sapiens) (UniProt Q02156); assay: Inhibition of wild-type human partial length PKCE (A378 to P737 residues) expressed in mammalian expression system assessed as residual activity at 50 nM by Kinomescan method relative to control
[9] = test system: Phosphatidylinositol 4,5-bisphosphate 3-kinase catalytic subunit alpha isoform (Homo sapiens), P42336 [H1047Y]; assay: Inhibition of human partial length PIK3CA H1047Y mutant (R108 to N1068 residues) expressed in mammalian expression system assessed as residual activity at 50 nM by Kinomescan method relative to control
[10] = target: Homeodomain-interacting protein kinase 3 (Homo sapiens) (UniProt Q9H422); assay: Inhibition of wild-type human partial length HIPK3 (M153 to N562 residues) expressed in mammalian expression system assessed as residual activity at 50 nM by Kinomescan method relative to control
[11] = target: Serine/threonine-protein kinase 38 (Homo sapiens) (UniProt Q15208); assay: Inhibition of wild-type human partial length NDR1 (N33 to E449 residues) expressed in mammalian expression system assessed as residual activity at 50 nM by Kinomescan method relative to control
[12] = target: Bone morphogenetic protein receptor type-2 (Homo sapiens) (UniProt Q13873); assay: Inhibition of wild-type human partial length BMPR2 (R179 to Q526 residues) expressed in mammalian expression system assessed as residual activity at 50 nM by Kinomescan method relative to control
[13] = target: Interleukin-1 receptor-associated kinase 1 (Homo sapiens) (UniProt P51617); assay: Inhibition of wild-type human partial length IRAK1 (R194 to S712 residues) expressed in mammalian expression system assessed as residual activity at 50 nM by Kinomescan method relative to control
[14] = target: Mitogen-activated protein kinase 14 (Homo sapiens) (UniProt Q16539); assay: Inhibition of wild-type human full length p38-alpha (M1 to S360 residues) expressed in bacterial expression system assessed as residual activity at 50 nM by Kinomescan method relative to control
[15] = target: Serine/threonine-protein kinase PRP4 homolog (Homo sapiens) (UniProt Q13523); assay: Inhibition of wild-type human partial length PRP4 (D657 to I1007 residues) expressed in bacterial expression system assessed as residual activity at 50 nM by Kinomescan method relative to control
[16] = target: Serine/threonine-protein kinase pim-1 (Homo sapiens) (UniProt P11309); assay: Inhibition of wild-type human partial length PIM1 (A15 to K313 residues) expressed in bacterial expression system assessed as residual activity at 50 nM by Kinomescan method relative to control
[17] = target: Homeodomain-interacting protein kinase 2 (Homo sapiens) (UniProt Q9H2X6); assay: Inhibition of wild-type human partial length HIPK2 (M153 to S564 residues) expressed in mammalian expression system assessed as residual activity at 50 nM by Kinomescan method relative to control
[18] = target: CDK4/Cyclin D3 (Homo sapiens) (UniProt P11802+P30281); assay: Inhibition of wild-type human full length CDK4/cyclinD3 (M1 to E303 residues) expressed in mammalian expression system assessed as residual activity at 50 nM by Kinomescan method relative to control
[19] = target: Dual specificity tyrosine-phosphorylation-regulated kinase 2 (Homo sapiens) (UniProt Q92630); assay: Inhibition of wild-type human full length DYRK2 (M1 to S528 residues) expressed in mammalian expression system assessed as residual activity at 50 nM by Kinomescan method relative to control
[20] = target: Mitogen-activated protein kinase 4 (Homo sapiens) (UniProt P31152); assay: Inhibition of wild-type human partial length ERK4 (M1 to L365 residues) expressed in bacterial expression system assessed as residual activity at 50 nM by Kinomescan method relative to control
[21] = target: Tyrosine-protein kinase Mer (Homo sapiens) (UniProt Q12866); assay: Inhibition of wild-type human partial length MER (R557 to L884 residues) expressed in bacterial expression system assessed as residual activity at 50 nM by Kinomescan method relative to control
[22] = target: Phosphatidylinositol 5-phosphate 4-kinase type-2 gamma (Homo sapiens) (UniProt Q8TBX8); assay: Inhibition of wild-type human partial length PIP5K2C (M1 to A421 residues) expressed in mammalian expression system assessed as residual activity at 50 nM by Kinomescan method relative to control
[23] = target: cGMP-dependent protein kinase 1 (Homo sapiens) (UniProt Q13976); assay: Inhibition of wild-type human partial length PKG1 (L339 to F686 residues) expressed in bacterial expression system assessed as residual activity at 50 nM by Kinomescan method relative to control
[24] = target: Serine/threonine-protein kinase 33 (Homo sapiens) (UniProt Q9BYT3); assay: Inhibition of wild-type human full length STK33 (M1 to L514 residues) expressed in bacterial expression system assessed as residual activity at 50 nM by Kinomescan method relative to control

| Structure (SMILES) | IC50 [1] | activity at 0.05 µM (JAK2) | Activity [2] | Activity [3] | Activity [4] | Activity [5] | Activity [6] | Activity [7] | Activity [8] | Activity [9] | Activity [10] | Activity [11] | Activity [12] | Activity [13] | Activity [14] | Activity [15] | Activity [16] | Activity [17] | Activity [18] | Activity [19] | further results |
| --- | --- | --- | --- | --- | --- | --- | --- | --- | --- | --- | --- | --- | --- | --- | --- | --- | --- | --- | --- | --- | --- |
| COc1ccc(-c2cc3c(N[C@@H]4CC[C@](C)(N)C4(C)C)c(C(N)=O)cnn3c2)cn1 | 1.9 nM | 17% | 24% | 74% | 73% | 99% | 98% | 100% | 72% | 100% | 100% | 99% | 100% | 100% | 100% | 97% | 93% | 100% | 80% | 100% | Activity [20]: 100%; Activity [21]: 100%; Activity [22]: 100%; Activity [23]: 100%; Activity [24]: 100% |
| CC1(C)[C@H](Nc2c(C(N)=O)cnn3cc(-c4ccccc4)cc23)CC[C@]1(C)N | 0.4 nM | 3.9% | 17% | 38% | 48% | 50% | 55% | 58% | 58% | 66% | 72% | 92% | 93% | 94% | 94% | 95% | 96% | 97% | 100% | 100% | Activity [20]: 100%; Activity [21]: 100%; Activity [22]: 100%; Activity [23]: 100%; Activity [24]: 100% |

— ChEMBL document CHEMBL4052645, “Discovery of potent and efficacious pyrrolopyridazines as dual JAK1/3 inhibitors” (Bioorg Med Chem Lett, 2017)
